Test results published in ChEMBL document CHEMBL4311993, “Structure-activity relationship study of NPP1 inhibitors based on uracil-N1-(methoxy)ethyl-β-phosphate scaffold” (Eur J Med Chem, 2019).
One block for each compound: values may come before it. Activity calls are given as the source filed them. The rule behind the calls is not given here.

What was measured:
[1] = molecular target: P2Y purinoceptor 6 (Homo sapiens) (UniProt Q15077); test: Antagonist activity at human P2Y6 receptor expressed in AD293 cells assessed as inhibition of UDP-induced inositol-1-phosphate accumulation at 0.1 to 100 uM; type: functional, cell-based
[2] = molecular target: T1, Ectonucleotide pyrophosphatase/phosphodiesterase family member 1 (Homo sapiens) (UniProt P22413); test: Inhibition of human NPP1 expressed in COS7 cell membranes at 100 uM using pNP-TMP as substrate preincubated for 3 mins followed by substrate addition and measured after 15 mins relative to control
T1 sequence (whole entry): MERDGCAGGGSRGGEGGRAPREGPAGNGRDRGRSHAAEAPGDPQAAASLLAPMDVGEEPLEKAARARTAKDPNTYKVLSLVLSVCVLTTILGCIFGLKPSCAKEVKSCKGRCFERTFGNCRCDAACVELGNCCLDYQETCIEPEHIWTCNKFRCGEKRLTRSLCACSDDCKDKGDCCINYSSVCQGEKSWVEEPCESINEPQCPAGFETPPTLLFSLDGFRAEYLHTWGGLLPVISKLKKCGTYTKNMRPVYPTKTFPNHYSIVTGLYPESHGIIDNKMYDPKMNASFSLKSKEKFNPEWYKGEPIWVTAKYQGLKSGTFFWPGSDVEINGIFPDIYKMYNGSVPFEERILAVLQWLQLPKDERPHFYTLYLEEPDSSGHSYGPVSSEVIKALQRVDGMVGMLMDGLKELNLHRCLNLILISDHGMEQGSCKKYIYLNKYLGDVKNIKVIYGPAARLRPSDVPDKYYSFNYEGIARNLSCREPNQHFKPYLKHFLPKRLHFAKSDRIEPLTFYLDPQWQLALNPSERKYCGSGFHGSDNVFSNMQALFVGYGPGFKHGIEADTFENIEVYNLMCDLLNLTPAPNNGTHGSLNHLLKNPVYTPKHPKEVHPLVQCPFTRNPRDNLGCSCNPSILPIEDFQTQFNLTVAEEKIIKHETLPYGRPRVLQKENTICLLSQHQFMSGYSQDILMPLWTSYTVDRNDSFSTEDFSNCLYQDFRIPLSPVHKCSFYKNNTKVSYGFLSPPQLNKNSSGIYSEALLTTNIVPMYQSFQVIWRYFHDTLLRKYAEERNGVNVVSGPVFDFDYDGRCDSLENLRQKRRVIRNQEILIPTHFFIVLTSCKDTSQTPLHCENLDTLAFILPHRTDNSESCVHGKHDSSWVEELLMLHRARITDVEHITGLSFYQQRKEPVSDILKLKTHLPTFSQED

Homo sapiens = species: Homo sapiens; test: Inhibition of alkaline phosphatase in human primary chondrocyte at 100 uM using p-nitrophenyl phosphate as substrate after 30 mins by […] relative to control
[3] = molecular target: P2Y purinoceptor 6 (Homo sapiens) (UniProt Q15077); test: Agonist activity at human P2Y6 receptor expressed in AD293 cells assessed as inositol-1-phosphate accumulation at 100 uM; type: functional, cell-based
[4] = molecular target: T2, Ectonucleotide pyrophosphatase/phosphodiesterase family member 1 (Homo sapiens, UniProt P22413); test: Inhibition of human NPP1 expressed in COS7 cell membranes using pNP-TMP as substrate preincubated for 3 mins followed by substrate addition and measured after 15 mins by Dixon plot analysis
T2 sequence (P22413 whole entry): T1 sequence (whole entry)

[5] = molecular target: P2Y purinoceptor 2 (Homo sapiens) (UniProt P41231); test: Agonist activity at human P2Y2 receptor expressed in AD293 cells assessed as inositol-1-phosphate accumulation at 100 uM; type: functional, cell-based
[6] = molecular target: P2Y purinoceptor 4 (Homo sapiens) (UniProt P51582); test: Antagonist activity at human P2Y4 receptor expressed in AD293 cells assessed as inhibition of UTP-induced inositol-1-phosphate accumulation at 0.1 to 100 uM; type: functional, cell-based
[7] = molecular target: P2Y purinoceptor 2 (Homo sapiens) (UniProt P41231); test: Antagonist activity at human P2Y2 receptor expressed in AD293 cells assessed as inhibition of UTP-induced inositol-1-phosphate accumulation at 100 uM; type: functional, cell-based
[8] = Cytotoxicity against human primary chondrocytes at 100 uM after 24 hrs by XTT assay
[9] = molecular target: T3, Ectonucleotide pyrophosphatase/phosphodiesterase family member 3 (Homo sapiens) (UniProt O14638); test: Inhibition of human NPP3 expressed in COS7 cell membranes at 100 uM using pNP-TMP as substrate preincubated for 3 mins followed by substrate addition and measured after 15 mins relative to control
T3 sequence (whole entry): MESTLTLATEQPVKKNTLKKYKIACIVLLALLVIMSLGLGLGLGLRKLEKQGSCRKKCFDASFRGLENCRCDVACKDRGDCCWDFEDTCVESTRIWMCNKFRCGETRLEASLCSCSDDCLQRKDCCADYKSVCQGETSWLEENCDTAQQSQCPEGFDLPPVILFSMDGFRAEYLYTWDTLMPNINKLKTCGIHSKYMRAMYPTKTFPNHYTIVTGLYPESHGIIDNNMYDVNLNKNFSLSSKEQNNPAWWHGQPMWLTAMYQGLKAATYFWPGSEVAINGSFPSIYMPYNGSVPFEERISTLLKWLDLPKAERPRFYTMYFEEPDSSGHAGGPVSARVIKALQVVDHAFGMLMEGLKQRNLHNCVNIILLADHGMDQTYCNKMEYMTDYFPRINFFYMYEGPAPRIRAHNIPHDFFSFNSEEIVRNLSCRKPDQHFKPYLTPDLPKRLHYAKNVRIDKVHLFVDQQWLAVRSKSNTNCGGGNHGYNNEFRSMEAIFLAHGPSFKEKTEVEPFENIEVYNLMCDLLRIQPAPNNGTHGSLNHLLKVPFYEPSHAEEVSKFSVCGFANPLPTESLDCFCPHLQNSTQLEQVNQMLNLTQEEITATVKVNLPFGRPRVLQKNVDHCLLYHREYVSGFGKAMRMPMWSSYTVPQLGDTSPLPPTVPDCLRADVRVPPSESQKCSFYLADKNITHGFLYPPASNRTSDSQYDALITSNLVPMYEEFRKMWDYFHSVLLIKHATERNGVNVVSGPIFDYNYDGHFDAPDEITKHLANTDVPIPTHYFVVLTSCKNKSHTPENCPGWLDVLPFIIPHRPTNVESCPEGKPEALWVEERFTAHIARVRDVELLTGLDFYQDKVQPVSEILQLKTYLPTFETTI

[10] = molecular target: P2Y purinoceptor 4 (Homo sapiens) (UniProt P51582); test: Agonist activity at human P2Y4 receptor expressed in AD293 cells assessed as inositol-1-phosphate accumulation at 0.1 to 100 uM; type: functional, cell-based
[11] = molecular target: T2, Ectonucleotide pyrophosphatase/phosphodiesterase family member 1; test: Inhibition of full-length human NPP-1 expressed in baculovirus infected Sf9 cells using p-Nph5-TMP as substrate after 60 mins by colorimetric assay

Sequence of P2Y purinoceptor 6 (Homo sapiens) (Q15077 whole entry): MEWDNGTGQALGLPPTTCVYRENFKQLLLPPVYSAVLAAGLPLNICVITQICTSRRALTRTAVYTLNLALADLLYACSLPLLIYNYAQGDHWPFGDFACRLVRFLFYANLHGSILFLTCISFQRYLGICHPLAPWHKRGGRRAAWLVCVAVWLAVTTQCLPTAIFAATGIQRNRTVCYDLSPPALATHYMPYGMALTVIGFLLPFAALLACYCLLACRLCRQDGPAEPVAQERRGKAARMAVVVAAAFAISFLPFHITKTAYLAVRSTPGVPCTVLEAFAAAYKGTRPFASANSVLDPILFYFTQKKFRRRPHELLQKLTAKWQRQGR
Sequence of P2Y purinoceptor 4 (Homo sapiens) (P51582 whole entry): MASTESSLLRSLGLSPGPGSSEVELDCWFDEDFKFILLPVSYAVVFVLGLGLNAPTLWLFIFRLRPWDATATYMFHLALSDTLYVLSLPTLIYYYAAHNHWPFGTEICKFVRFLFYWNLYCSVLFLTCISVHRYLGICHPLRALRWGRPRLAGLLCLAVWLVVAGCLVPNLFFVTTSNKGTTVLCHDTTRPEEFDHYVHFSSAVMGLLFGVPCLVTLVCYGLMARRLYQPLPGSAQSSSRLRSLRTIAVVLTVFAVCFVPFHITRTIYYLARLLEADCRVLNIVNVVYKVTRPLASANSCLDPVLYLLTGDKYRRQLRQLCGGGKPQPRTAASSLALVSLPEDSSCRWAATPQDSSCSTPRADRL
Sequence of P2Y purinoceptor 2 (Homo sapiens) (P41231 whole entry): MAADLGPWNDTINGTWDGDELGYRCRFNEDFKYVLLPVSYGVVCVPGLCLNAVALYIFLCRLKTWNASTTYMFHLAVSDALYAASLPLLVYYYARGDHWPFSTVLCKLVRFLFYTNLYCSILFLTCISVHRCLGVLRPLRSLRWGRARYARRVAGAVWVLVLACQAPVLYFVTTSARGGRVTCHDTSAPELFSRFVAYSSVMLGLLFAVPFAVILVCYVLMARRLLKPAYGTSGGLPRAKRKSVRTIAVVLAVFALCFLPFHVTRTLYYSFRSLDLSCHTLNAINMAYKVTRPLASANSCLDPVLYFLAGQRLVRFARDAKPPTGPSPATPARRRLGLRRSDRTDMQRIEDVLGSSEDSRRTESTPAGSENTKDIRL

SMILES: O=c1ccn(COCCOP(=S)(S)OP(=O)(O)OP(=O)(O)O)c(=O)[nH]1 (stereo not drawn)
inhibition [1]: inactive | inhibition [2]: 96 to 98% | inhibition (Homo sapiens): < 10% | Activity [3]: Active | Ki [4]: 1.28 µM | Activity [5]: inactive | inhibition [6]: inactive | inhibition [7]: inactive | Activity [8]: Non-Toxic | inhibition [9]: 31% | Activity [10]: inactive

Ki [11]: 16.3 µM
SMILES: Nc1ncnc2c1ncn2COCCOP(=O)(O)CP(=O)(O)O

SMILES: O=c1ccn(COCCOP(=S)(S)OP(=O)(O)O)c(=O)[nH]1 (stereo not drawn)
inhibition [1]: inactive | inhibition [2]: 96 to 98% | inhibition (Homo sapiens): < 10% | Activity [3]: Active | Ki [4]: 2.83 µM | Activity [5]: inactive | inhibition [6]: inactive | inhibition [7]: inactive | Activity [8]: Non-Toxic | inhibition [9]: 30% | Activity [10]: inactive
